From publication PMC12811658, “Design, Synthesis, and Structural Evolution of Pseudo‐Natural Product IDO1 Inhibitors and Degraders” (Angewandte Chemie (International Ed. in English), 2025) come the findings set out here.

Entries after “also recorded” stand apart in the source; their conditions may differ.

In general, IC50 refers to the point on the concentration scale where inhibition reaches its midpoint.

The test system of one experiment is Kyn levels in BxPC3 cells (kynurenine generated by IDO1). As to the kind of experiment: Cellular Kyn assay (automated Kyn screening assay). It counts as cell-based.
Conditions: not given
Consider `Cc1ccc(OC(=O)OC[C@]23CN(S(=O)(=O)c4ccc(C(C)(C)C)cc4)C[C@H]2C[C@H]2C[C@@H]3C2(C)C)cc1` [compound 13, ((3aS,4R,6R,7aS)-2-((4-(tert-butyl)phenyl)sulfonyl)-5,5-dimethyloctahydro-3aH-4,6-methanoisoindol-3a-yl)methyl p-tolyl carbonate], for which the “activity in cellular Kyn assay (in words)” value (from here on “activity … (in words)”) is “did not improve activity; also recorded: inactive”.

For the compound `CC(C)(C)c1ccc(S(=O)(=O)N2CC3C[C@H]4C[C@H](C4(C)C)[C@]3(COC(=O)c3ccccc3)C2)cc1` (stereo partly drawn) [compound 15, ((3aR,4R,6R)-2-((4-(tert-butyl)phenyl)sulfonyl)-5,5-dimethyloctahydro-3aH-4,6-methanoisoindol-3a-yl)methyl benzoate], the “activity … (in words)” value is “did not improve activity; also recorded: inactive”. Regarding `CC(C)[C@]12CC(OC(=O)Nc3ccc(I)cc3)[C@]3(CCN(S(=O)(=O)c4ccc(C(C)(C)C)cc4)C3)[C@H]1C2` (stereo partly drawn) [compound 24, (1S,2R,5S)-1'-((4-(tert-butyl)phenyl)sulfonyl)-5-isopropylspiro[bicyclo[3.1.0]hexane-2,3'-pyrrolidin]-3-yl (4-iodophenyl)carbamate], the “activity … (in words)” value is “inactive”. In the case of `CC(C)(C)c1ccc(S(=O)(=O)N2C[C@@H]3C[C@@H]4C[C@@H](C4(C)C)[C@]3(COC(=O)Nc3ccc(I)cc3)C2)cc1` [compound 20, ((3aR,4S,6S,7aR)-2-((4-(tert-butyl)phenyl)sulfonyl)-5,5-dimethyloctahydro-3aH-4,6-methanoisoindol-3a-yl)methyl (4-iodophenyl)carbamate], the “fold lower activity than 14 (iDeg-2) in Kyn assay” value was determined as 16 fold. With `CC(C)(C)c1ccc(C(=O)N2C[C@H]3C[C@H]4C[C@H](C4(C)C)[C@@]3(COC(=O)Nc3ccc(I)cc3)C2)cc1` [compound 16, ((3aS,4R,6R,7aS)-2-(4-(tert-butyl)benzoyl)-5,5-dimethyloctahydro-3aH-4,6-methanoisoindol-3a-yl)methyl (4-iodophenyl)carbamate], the “activity … (in words)” value is reported as “abolished activity”. `Cc1ccc(NC(=O)OC[C@]23CN(Cc4ccccc4)C[C@H]2C[C@H]2C[C@@H]3C2(C)C)cc1` [compound 9, ((3aS,4R,6R,7aS)-2-benzyl-5,5-dimethyloctahydro-3aH-4,6-methanoisoindol-3a-yl) methyl p-tolylcarbamate]: the “activity … (in words)” value is reported as “abolished activity; also recorded: loss of activity”.

With `CC(C)(C)c1ccc(S(=O)(=O)N2C[C@@H]3C[C@@H]4[C@H](C[C@]3(COC(=O)Nc3ccc(I)cc3)C2)C4(C)C)cc1` [compound 21, ((3aR,4aS,5aR,6aR)-2-((4-(tert-butyl)phenyl)sulfonyl)-5,5-dimethyloctahydrocyclopropa[f]isoindol-3a(1H)-yl)methyl (4-iodophenyl)carbamate], the “activity … (in words)” value is “inactive”.

The same experiment, now with this note: Homo sapiens, BXPC-3, 48 h, IFN-γ, L-Trp and compounds 48 h, mean ± SD, read-out: IC50 (Kyn assay), reduction of kynurenine levels.
For `CC(C)(C)c1ccc(S(=O)(=O)N2C[C@H]3C[C@H]4C[C@H](C4(C)C)[C@@]3(COC(=O)Nc3ccccc3Br)C2)cc1` [compound 38, ((3aS,4R,6R,7aS)-2-((4-(tert-butyl)phenyl)sulfonyl)-5,5-dimethyloctahydro-3aH-4,6-methanoisoindol-3a-yl)methyl (2-bromophenyl)carbamate], the IC50 is 0.39 ± 0.07 µM. Still for that read-out and setting: under `CC1(C)CCC(C)(C)c2cc(S(=O)(=O)N3C[C@H]4C[C@H]5C[C@H](C5(C)C)[C@@]4(COC(=O)Nc4ccc(I)cc4)C3)ccc21` [compound 73, ((3aS,4R,6R,7aS)-5,5-dimethyl-2-((5,5,8,8-tetramethyl-5,6,7,8-tetrahydronaphthalen-2-yl)sulfonyl)octahydro-3aH-4,6-methanoisoindol-3a-yl)methyl (4-iodophenyl)carbamate] stands 0.45 ± 0.39 µM; under `Cc1ccc(S(=O)(=O)N2C[C@H]3C[C@H]4C[C@H](C4(C)C)[C@@]3(COC(=O)Nc3ccc(I)cc3)C2)cn1` [compound 62, ((3aS,4R,6R,7aS)-5,5-dimethyl-2-((6-methylpyridin-3-yl)sulfonyl)octahydro-3aH-4,6-methanoisoindol-3a-yl)methyl (4-iodophenyl)carbamate], 1.3 ± 0.3 µM.

With `CCOC(=O)C(C)(C)c1ccc(S(=O)(=O)N2C[C@H]3C[C@H]4C[C@H](C4(C)C)[C@@]3(COC(=O)Nc3ccc(I)cc3)C2)cc1` [compound 89, Ethyl 2-(4-(((3aS,4R,6R,7aS)-3a-((((4-iodophenyl)carbamoyl)oxy)methyl)-5,5-dimethyloctahydro-2H-4,6-methanoisoindol-2-yl)sulfonyl)phenyl)-2-methylpropanoate], the IC50 amounted to 0.25 ± 0.08 µM. The same measure, in the same setting: under `CN(C)C(=O)C(C)(C)c1ccc(S(=O)(=O)N2C[C@H]3C[C@H]4C[C@H](C4(C)C)[C@@]3(COC(=O)Nc3ccc(I)cc3)C2)cc1` [compound 87, ((3aS,4R,6R,7aS)-2-((4-(1-(dimethylamino)-2-methyl-1-oxopropan-2-yl)phenyl)sulfonyl)-5,5-dimethyloctahydro-3aH-4,6-methanoisoindol-3a-yl)methyl (4-iodophenyl)carbamate] stands 0.85 ± 0.27 µM; under `CC(C)(C)Cc1ccc(S(=O)(=O)N2C[C@H]3C[C@H]4C[C@H](C4(C)C)[C@@]3(COC(=O)Nc3ccc(I)cc3)C2)cc1` [compound 74, ((3aS,4R,6R,7aS)-5,5-dimethyl-2-((4-neopentylphenyl)sulfonyl)octahydro-3aH-4,6-methanoisoindol-3a-yl)methyl (4-iodophenyl)carbamate], 0.23 ± 0.06 µM. The same measure, in the same setting: under `CCC(C)(C)c1ccc(S(=O)(=O)N2C[C@H]3C[C@H]4C[C@H](C4(C)C)[C@@]3(COC(=O)Nc3ccc(I)cc3)C2)cc1` [compound 75, ((3aS,4R,6R,7aS)-5,5-dimethyl-2-((4-(tert-pentyl)phenyl)sulfonyl)octahydro-3aH-4,6-methanoisoindol-3a-yl)methyl (4-iodophenyl)carbamate] stands 0.19 ± 0.07 µM; under `CC(C)(C)c1ccc(S(=O)(=O)N2C[C@H]3C[C@H]4C[C@H](C4(C)C)[C@@]3(COC(=O)Nc3ccc(F)cc3)C2)cc1` [compound 34, ((3aS,4R,6R,7aS)-2-((4-(tert-butyl)phenyl)sulfonyl)-5,5-dimethyloctahydro-3aH-4,6-methanoisoindol-3a-yl)methyl (4-fluorophenyl)carbamate], above 10 µM.

Regarding `Cc1ccc(NC(=O)OC[C@]23CN(S(=O)(=O)c4ccc(OC(F)(F)F)cc4)C[C@H]2C[C@H]2C[C@@H]3C2(C)C)cc1` [compound 58, ((3aS,4R,6R,7aS)-5,5-dimethyl-2-((4-(trifluoromethoxy)phenyl)sulfonyl)octahydro-3aH-4,6-methanoisoindol-3a-yl)methyl p-tolylcarbamate], the concentration for half-maximal inhibition (IC50) stood at 3 ± 1.3 µM. With `Cc1cccc(S(=O)(=O)N2C[C@H]3C[C@H]4C[C@H](C4(C)C)[C@@]3(COC(=O)Nc3ccc(I)cc3)C2)c1` [compound 67, ((3aS,4R,6R,7aS)-5,5-dimethyl-2-(m-tolylsulfonyl)octahydro-3aH-4,6-methanoisoindol-3a-yl)methyl (4-iodophenyl)carbamate], the IC50 is 1.1 ± 0.5 µM.

For `CC(C)(C)c1ccc(S(=O)(=O)N2C[C@H]3C[C@H]4C[C@H](C4(C)C)[C@@]3(COC(=O)Nc3ccccc3I)C2)cc1` [compound 37, ((3aS,4R,6R,7aS)-2-((4-(tert-butyl)phenyl)sulfonyl)-5,5-dimethyloctahydro-3aH-4,6-methanoisoindol-3a-yl)methyl (2-iodophenyl)carbamate], the IC50 is 0.89 ± 0.18 µM. As to `CC(C)(C)c1ccc(S(=O)(=O)N2C[C@H]3C[C@H]4C[C@H](C4(C)C)[C@@]3(COC(=O)Nc3ccccc3)C2)cc1` [compound 32, ((3aS,4R,6R,7aS)-2-((4-(tert-butyl)phenyl)sulfonyl)-5,5-dimethyloctahydro-3aH-4,6-methanoisoindol-3a-yl)methyl phenylcarbamate], the IC50 was 7 ± 1.6 µM. For `CC(C)(C)c1ccc(S(=O)(=O)N2C[C@H]3C[C@H]4C[C@H](C4(C)C)[C@@]3(COC(=O)Nc3cccc(N=[N+]=[N-])c3)C2)cc1` [compound 41, ((3aS,4R,6R,7aS)-2-((4-(tert-butyl)phenyl)sulfonyl)-5,5-dimethyloctahydro-3aH-4,6-methanoisoindol-3a-yl)methyl (3-azidophenyl)carbamate], the IC50 is above 10 µM. Same read-out and setting: under `CC(C)(C)c1ccc(S(=O)(=O)N2C[C@H]3C[C@H]4C[C@H](C4(C)C)[C@@]3(COC(=O)Nc3ccc(O)cc3)C2)cc1` [compound 42, ((3aS,4R,6R,7aS)-2-((4-(tert-butyl)phenyl)sulfonyl)-5,5-dimethyloctahydro-3aH-4,6-methanoisoindol-3a-yl)methyl (4-hydroxyphenyl)carbamate] stands above 10 µM. As to `CC1(C)[C@H]2C[C@@H]3CN(S(=O)(=O)c4cccnc4)C[C@]3(COC(=O)Nc3ccc(I)cc3)[C@@H]1C2` [compound 61, ((3aS,4R,6R,7aS)-5,5-dimethyl-2-(pyridin-3-ylsulfonyl)octahydro-3aH-4,6-methanoisoindol-3a-yl)methyl (4-iodophenyl)carbamate], the IC50 worked out at 6.1 ± 0.9 µM. For `CCc1ccc(NC(=O)OC[C@]23CN(S(=O)(=O)c4ccc(C(C)(C)C)cc4)C[C@H]2C[C@H]2C[C@@H]3C2(C)C)cc1` [compound 28, ((3aS,4R,6R,7aS)-2-((4-(tert-butyl)phenyl)sulfonyl)-5,5-dimethyloctahydro-3aH-4,6-methanoisoindol-3a-yl)methyl (4-ethylphenyl)carbamate], the half-maximal inhibitory concentration (IC50) is 2.9 ± 0.3 µM. Take `Cc1ccc(NC(=O)OC[C@]23CN(S(=O)(=O)C(C)C)C[C@H]2C[C@H]2C[C@@H]3C2(C)C)cc1` [compound 54, ((3aS,4R,6R,7aS)-2-(isopropylsulfonyl)-5,5-dimethyloctahydro-3aH-4,6-methanoisoindol-3a-yl) methyl p-tolylcarbamate]: the IC50 is 4.7 ± 0.41 µM.

As for `CC(C)c1ccc(S(=O)(=O)N2C[C@H]3C[C@H]4C[C@H](C4(C)C)[C@@]3(COC(=O)Nc3ccc(I)cc3)C2)cc1` [compound 69, ((3aS,4R,6R,7aS)-2-((4-isopropylphenyl)sulfonyl)-5,5-dimethyloctahydro-3aH-4,6-methanoisoindol-3a-yl)methyl (4-iodophenyl)carbamate], the IC50 came out at 0.14 ± 0.02 µM.
